Where “and” joins values, the source holds several entries; their conditions need not be identical. Equal values may be shown once.
Tests used:
Assay type in all cases: cell-based, human
Collagen 2A1 = assay: Stem cell chondrogenesis, real time PCR gene expression: Collagen 2A1; details: for Mean regulation / regulation: vs saline; for Mean ΔCp / ΔCp: Collagen 2A1 vs GAPDH; for regulation, Collagen 2A1 / Mean regulation, Collagen 2A1: fold regulation vs saline; for regulation, Collagen 2A1 / ΔCp, Collagen 2A1 / 2^-ΔΔCp vs saline, Collagen 2A1 / ΔΔCp vs saline, Collagen 2A1: single replicate well; for Mean regulation, Collagen 2A1 / Mean ΔCp, Collagen 2A1: triplicate wells; for ΔCp, Collagen 2A1: human bone marrow MSC, chondrogenic medium + TGF beta 3; for ΔCp, Collagen 2A1 / 2^-ΔΔCp vs saline, Collagen 2A1 / ΔΔCp vs saline, Collagen 2A1 / Mean ΔCp, Collagen 2A1: vs Actin
Procedure: (§1) • Stem Cells: Bone marrow derived human mesenchymal stem cells: Passage 5 Bone marrow derived human mesenchymal stem cells (HUXMA-01001, Cyagen Biosciences, Sunnyvale Calif.) • Mesenchymal Stem Cell Chondrogenic Differentiation medium (GUXMX-90041, Cyagen Biosciences, Sunnyvale Calif.) • TheraPEAK MSCGM chemically defined Stem cell medium (190632 Lonza) • 1 mM Dexamethasone acetate and mifepristone in absolute ethanol (Sigma) • Saline or 0.9% Sodium chloride for injection ZR Flush (Excelsior Medical, Neptune N.J.) • Sterile filtered 0.6 mM sodium caprylate in saline (sigma) • Sterile filtered 3 mM NAT in saline (sigma); To prepare, heat at 60° C. for 30 minutes then sonicate for 5 minutes. • Sterile filtered 10 mM DADKP in saline • 0.2 μM syringe filters • Hepes buffered saline, Trypsin/EDTA, Trypsin neutralizing solution (Lonza reagent pack) • 182 cm2 tissue culture flasks • pipettes and sterile tips • Tissue culture hood, humidified CO2 incubator, water or bead bath • 24 well tissue culture plates • Qiagen RNeasy plus spin columns (Qiagen 74134) • Qiagen RT2 qPCR primer pairs for Collagen 2A1, MMP13, TIMP1, Aggrecan, GAPDH, and Actin B • Roche Sybr green I master mix and Invitrogen Superscript VILO master mix. • Roche 480 lightcycler
(§2) The following stock drug treatment solutions were prepared in saline for injection and warmed to 37° C. in bath: • 4 μM dexamethasone • 4 μM mifepristone • 3 mM NAT • 0.6 mM caprylate • 80 μM DADKP • Mix of 3 mM NAT, 0.6 mM caprylate, 80 μM DADKP (“Ampion” mix)
(§3) Cyagen Chondrogenic Differentiation medium was prepared by manufacturer protocols but excluding dexamethasone and TGF beta 3 supplements, and warmed to 37° C. in bath.
(§4) The treatment protocol included expanding 5 HUXMA stem cells in 182 cm^2 flasks containing 40 mls TheraPEAK™ MSCGM to 80-90% confluence. Cells were trypsinized from the flasks and a 1.0×10^7 cell suspension of HUXMA stem cells was warmed in Cyagen Chondrogenic Differentiation medium. 20 μl of warmed cell suspension was spotted in the middle of each well of a 24-well tissue culture plate (200,000 cells per spot), and incubated at 37° C. and 5% CO2 for one hour.
(§5) The plates were removed from the incubator and an additional 720 μl chondrogenic medium was added to each well. 250 μl saline, or drug solutions were added to the appropriate wells in triplicate (bringing the final drug dilution to one-quarter of the stock drug treatment solution concentrations). 10 μl of TGF beta 3 solution (supplied by Cyagen) was added to each well, and the plates were returned to the incubator.
(§6) RNA isolation and analysis was conducted for all plates as follows at days 7, 14, and 22 post treatment (with the described medium exchanges). […] Qiagen RNeasy plus lysis buffer (with 2mercaptoethanol) was added to each well and gently shaken for 10 minutes. The lysed cell suspensions from each well were transferred to Qiashredder columns and spun at 14,000 rpm for 2 minutes. RNA isolation proceeded by RNeasy™ plus manufacturer's protocol. RNA was eluted from the Qiagen columns using 25 μl RNase free water.
(§7) cDNA synthesis and real time PCR was conducted as follows. First strand synthesis of cDNA from all samples was performed in 20 μl total volume using 10 μl isolated RNA. All cDNA reactions were then diluted with 30 μl nuclease free water. Real time PCR was then performed using 5 μl diluted cDNA, Roche Syber green master mix, and Qiagen RT^2 gPCR™ primer pairs in 20 μl total reaction volume. Relative gene expression was determined by delta deta Ct method.

MMP13 = assay: Stem cell chondrogenesis, real time PCR gene expression: MMP13; details: for Mean regulation: vs saline; for Mean ΔCp / ΔCp: MMP13 vs GAPDH
Procedure: as §1, §2, §3, §4, §5, §6, §7

SOX9 = assay: Stem cell chondrogenesis, real time PCR gene expression: SOX9; details: Day 14
Procedure: The treatment protocol included expanding 5 HUXMA stem cells in 182 cm^2 flasks containing 40 […] to 80-90% confluence. Cells were trypsinized from the flasks and a 1.0×10^7 cell suspension of HUXMA stem cells was warmed in Cyagen Chondrogenic Differentiation medium. 20 μl of warmed cell suspension was spotted in the middle of each well of a 24-well tissue culture plate (200,000 cells per spot), and incubated at 37° C. and 5% CO2 for one hour. […] Medium exchanges were performed every 3-4 days by aspirating the medium from the wells and replacing with fresh chondrogenic medium, diluted stocks, and TGF beta 3, as described above. […] Medium from the wells was removed and saved for further protein analysis. Qiagen RNeasy plus lysis buffer (with 2mercaptoethanol) was added to each well and gently shaken for 10 minutes. The lysed cell suspensions from each well were transferred to Qiashredder columns and spun at 14,000 rpm for 2 minutes. RNA isolation proceeded by RNeasyTM plus manufacturer's protocol. RNA was eluted from the Qiagen columns using 25 μl RNase free water. cDNA synthesis and real time PCR was conducted as follows. First strand synthesis of cDNA from all samples was performed in 20 μl total volume using 10 μl isolated RNA. All cDNA reactions were then diluted with 30 μl nuclease free water. Real time PCR was then performed using 5 μl diluted cDNA, Roche Syber green master mix, and Qiagen RT^2 gPCRTM primer pairs in 20 μl total reaction volume.

Aggrecan = assay: Stem cell chondrogenesis, real time PCR gene expression: Aggrecan; details: Day 22; for Mean ΔCp / ΔCp: Aggrecan vs Actin; for Mean regulation / regulation: vs saline
Procedure: as §1, §2, §3, §4, §5, §6, §7

TIMP1 = assay: Stem cell chondrogenesis, real time PCR gene expression: TIMP1; details: Day 22; for Mean ΔCp / ΔCp: TIMP1 vs Actin
[1] = Day 7, vs Actin, single replicate well
[2] = vs Actin, single replicate well

CC(=O)OCC(=O)[C@@]1(O)[C@H](C)C[C@H]2[C@@H]3CCC4=CC(=O)C=C[C@]4(C)[C@@]3(F)[C@@H](O)C[C@@]21C [Dexamethasone, Dexamethasone acetate]
2-^ΔΔCP vs saline (Collagen 2A1; Collagen 2A1, Day 22, Table 12): 141.7 and 196.27 and 168.51 | Cp Coll (Collagen 2A1; Collagen 2A1, Day 22, Table 12): 22.42 and 21.94 and 21.42 | 2^-ΔΔCp vs saline (Collagen 2A1; Collagen 2A1, Day 22, Table 16): 141.7 and 196.27 and 168.51 | Cp Coll (Collagen 2A1; Collagen 2A1, Day 22, Table 16): 22.42 and 21.94 and 21.42 | Mean regulation (Collagen 2A1; Collagen 2A1, Day 22, Table 12): 168.82 | regulation (Collagen 2A1; Collagen 2A1, Day 22, Table 12): 141.70 and 196.27 and 168.51 | Mean regulation (Collagen 2A1; Collagen 2A1, Day 22, Table 16): 168.82 | regulation (Collagen 2A1; Collagen 2A1, Day 22, Table 16): 141.70 and 196.27 and 168.51 | Mean ΔCp (Collagen 2A1; Day 22, Table 12): 5.76 | ΔCp (Collagen 2A1; Day 22, Table 12): 6 and 5.53 and 5.75 | Mean ΔCp (Collagen 2A1; Day 22, Table 16): 5.76 | ΔCp (Collagen 2A1; Day 22, Table 16): 6 and 5.53 and 5.75 | regulation, Collagen 2A1 (Collagen 2A1; Day 7): −1.01 and 2.61 and 2.72 | Mean regulation, Collagen 2A1 (Collagen 2A1; Day 7): 1.44 | ΔCp, Collagen 2A1 (Collagen 2A1; Day 7): 6.75 and 5.35 and 5.29 | 2^-ΔΔCp vs saline, Collagen 2A1 (Collagen 2A1; Day 7): 0.9885 and 2.6087 and 2.7195 | ΔΔCp vs saline, Collagen 2A1 (Collagen 2A1; Day 7): 0.017 and −1.38 and −1.44 | Mean ΔCp, Collagen 2A1 (Collagen 2A1; Day 7): 5.797 | regulation, Collagen 2A1 (Collagen 2A1; Day 14): 7.29 and 10.39 and 6.57 | Mean regulation, Collagen 2A1 (Collagen 2A1; Day 14): 8.08 | ΔCp, Collagen 2A1 (Collagen 2A1; Day 14): 8.19 and 7.68 and 8.34 | 2^-ΔΔCp vs saline, Collagen 2A1 (Collagen 2A1; Day 14): 7.2938 and 10.387 and 6.5735 | ΔΔCp vs saline, Collagen 2A1 (Collagen 2A1; Day 14): −2.87 and −3.38 and −2.72 | Mean ΔCp, Collagen 2A1 (Collagen 2A1; Day 14): 8.07 | regulation, MMP13 (MMP13; Day 7, fold regulation vs saline, single replicate well): −1.62 and 1.64 and 1.33 | Mean regulation, MMP13 (MMP13; Day 7, fold regulation vs saline, triplicate wells): 0.45 | ΔCp, MMP13 (MMP13; Day 7, human bone marrow MSC, chondrogenic medium + TGF beta 3, vs Actin, single replicate well): 5.33 and 3.92 and 4.23 | 2^-ΔΔCp vs saline, MMP13 (MMP13; [1]): 0.6184 and 1.6434 and 1.3256 | ΔΔCp vs saline, MMP13 (MMP13; [1]): 0.693 and −0.72 and −0.41 | Mean ΔCp, MMP13 (MMP13; Day 7, vs Actin, triplicate wells): 4.493 | Cp, MMP13 (MMP13; MMP13, Day 22, Table 12): 20.77 and 20.68 and 20.35 | ΔΔCp vs saline (MMP13; MMP13, Day 22, Table 12): 1.357 and 1.277 and 1.687 | 2^-ΔΔCp vs saline (MMP13; MMP13, Day 22, Table 16): 0.3905 and 0.4127 and 0.3106 | Cp, MMP13 (MMP13; MMP13, Day 22, Table 16): 20.77 and 20.68 and 20.35 | ΔΔCp vs saline (MMP13; MMP13, Day 22, Table 16): 1.357 and 1.277 and 1.687 | Mean regulation (MMP13; MMP13, Day 22, Table 12): −2.73 | Mean regulation (MMP13; MMP13, Day 22, Table 16): −2.73 | Mean ΔCp (MMP13; Day 22, Table 12): 4.433 | ΔCp (MMP13; Day 22, Table 12): 4.35 and 4.27 and 4.68 | Mean ΔCp (MMP13; Day 22, Table 16): 4.433 | ΔCp (MMP13; Day 22, Table 16): 4.35 and 4.27 and 4.68 | regulation, SOX9 (SOX9; fold regulation vs saline, single replicate well): −2.04 and −1.24 and −1.80 | Mean regulation, SOX9 (SOX9; fold regulation vs saline, triplicate wells): −1.69 | ΔCp, SOX9 (SOX9; human bone marrow MSC, chondrogenic medium + TGF beta 3, vs Actin, single replicate well): 8.21 and 7.49 and 8.03 | 2^-ΔΔCp vs saline, SOX9 (SOX9; [2]): 0.4897 and 0.8066 and 0.5548 | ΔΔCp vs saline, SOX9 (SOX9; [2]): 1.03 and 0.31 and 0.85 | Mean ΔCp, SOX9 (SOX9; vs Actin, triplicate wells): 7.91 | Mean ΔCp (Aggrecan; Table 12): 6.523 | ΔCp (Aggrecan; Table 12): 6.28 and 6.69 and 6.6 | Mean ΔCp (Aggrecan; Table 16): 6.523 | ΔCp (Aggrecan; Table 16): 6.28 and 6.69 and 6.6 | 2-ΔΔCp vs saline (Aggrecan; Aggrecan, Table 12): 15.313 and 11.525 and 12.267 | Cp Agg (Aggrecan; Aggrecan, Table 12): 20.48 and 20.68 and 20.44 | 2^-ΔΔCp vs saline (Aggrecan; Aggrecan, Table 16): 15.313 and 11.525 and 12.267 | Cp Agg (Aggrecan; Aggrecan, Table 16): 20.48 and 20.68 and 20.44 | Mean regulation (Aggrecan; Aggrecan, Table 12): 13.03 | regulation (Aggrecan; Aggrecan, Table 12): 15.31 and 11.52 and 12.27 | Mean regulation (Aggrecan; Aggrecan, Table 16): 13.03 | regulation (Aggrecan; Aggrecan, Table 16): 15.31 and 11.52 and 12.27 | Cp TIMP1 (TIMP1; TIMP1, Table 12): 17.35 and 16.81 | 2-^ΔΔCp vs saline (TIMP1; TIMP1, Table 16): 1.5333 and 1.3256 and 1.7371 | Cp TIMP1 (TIMP1; TIMP1, Table 16): 17.35 and 16.81 | Mean regulation (TIMP1; TIMP1, vs saline, Table 12): 1.53 | regulation (TIMP1; TIMP1, vs saline, Table 12): 1.33 and 1.74 and 1.53 | regulation (TIMP1; TIMP1, vs saline, Table 16): 1.53 and 1.33 and 1.74 | Mean ΔCp (TIMP1; Table 12): 3.16 | ΔCp (TIMP1; Table 12): 3.36 and 2.97 and 3.15 | Mean ΔCp (TIMP1; Table 16): 3.16 | ΔCp (TIMP1; Table 16): 3.15 and 3.36 and 2.97

Reference: patent US11026940B2, “Compositions for the mobilization, homing, expansion and differentiation of stem cells and methods of using the same” (Ampio Pharmaceuticals, Inc., priority 2013, dated 2021)
